Values quoted from earlier work in article PMC7168327, “Designed Antimicrobial Peptides for Topical Treatment of Antibiotic Resistant Acne Vulgaris” (Antibiotics, 2020).

Assays:
Details in all cases: cited from earlier work
C. acnes ATCC11827 = tested on: C. acnes ATCC11827
Text: (§1) Table 1 Growth Inhibition of dAMPs (MICs, µg/mL) against C. acnes Isolates. | column: Antibiotic Sensitivity / Tetra ^#; Antibiotic Sensitivity / Ery ^#; Antibiotic Sensitivity / Clind ^#

C. acnes ATCC6919 = tested on: C. acnes ATCC6919
Text: as §1

C. acnes HL007PA1 = tested on: C. acnes HL007PA1
Text: as §1

C. acnes HL013PA1 = tested on: C. acnes HL013PA1
Text: as §1

C. acnes HL038PA1 = tested on: C. acnes HL038PA1
Text: as §1

C. acnes HL043PA1 = tested on: C. acnes HL043PA1
Text: as §1

C. acnes HL043PA2 = tested on: C. acnes HL043PA2
Text: as §1

C. acnes HL045PA1 = tested on: C. acnes HL045PA1
Text: as §1

C. acnes HL053PA1 = tested on: C. acnes HL053PA1
Text: as §1

C. acnes HL056PA1 = tested on: C. acnes HL056PA1
Text: as §1

C. acnes HL072PA1 = tested on: C. acnes HL072PA1
Text: as §1

C. acnes HL082PA2 = tested on: C. acnes HL082PA2
Text: as §1

For `CCC[C@@H]1C[C@@H](C(=O)N[C@@H]([C@H]2O[C@H](SC)[C@H](O)[C@@H](O)[C@H]2O)[C@H](C)Cl)N(C)C1` [Clind, clindamycin], the “Antibiotic Sensitivity, Clind” value (C. acnes ATCC11827) is listed as “S (S, sensitive)”, the “Antibiotic Sensitivity, Clind” value (C. acnes ATCC6919) is listed as “S (S, sensitive)” and the “Antibiotic Sensitivity, Clind” value (C. acnes HL007PA1) is listed as “R (Antibiotic resistance to clindamycin defined by MIC ≥ 32 μg/mL)”. For the same molecule, the “Antibiotic Sensitivity, Clind” value (C. acnes HL013PA1) was “R (Antibiotic resistance to clindamycin defined by MIC ≥ 32 μg/mL)”, the “Antibiotic Sensitivity, Clind” value (C. acnes HL038PA1) was “R (Antibiotic resistance to clindamycin defined by MIC ≥ 32 μg/mL)” and the “Antibiotic Sensitivity, Clind” value (C. acnes HL043PA1) was “R (Antibiotic resistance to clindamycin defined by MIC ≥ 32 μg/mL)”. For the same molecule, the “Antibiotic Sensitivity, Clind” value (C. acnes HL043PA2) was “R (Antibiotic resistance to clindamycin defined by MIC ≥ 32 μg/mL)”, the “Antibiotic Sensitivity, Clind” value (C. acnes HL045PA1) was “R (Antibiotic resistance to clindamycin defined by MIC ≥ 32 μg/mL)” and the “Antibiotic Sensitivity, Clind” value (C. acnes HL053PA1) was “R (Antibiotic resistance to clindamycin defined by MIC ≥ 32 μg/mL)”. For the same molecule, the “Antibiotic Sensitivity, Clind” value (C. acnes HL056PA1) was “R (Antibiotic resistance to clindamycin defined by MIC ≥ 32 μg/mL)”, the “Antibiotic Sensitivity, Clind” value (C. acnes HL072PA1) was “R (Antibiotic resistance to clindamycin defined by MIC ≥ 32 μg/mL)” and the “Antibiotic Sensitivity, Clind” value (C. acnes HL082PA2) was “S (S, sensitive)”.
For `CC[C@H]1OC(=O)[C@H](C)[C@@H](O[C@H]2C[C@@](C)(OC)[C@@H](O)[C@H](C)O2)[C@H](C)[C@@H](O[C@@H]2O[C@H](C)C[C@H](N(C)C)[C@H]2O)[C@](C)(O)C[C@@H](C)C(=O)[C@H](C)[C@@H](O)[C@]1(C)O` [Ery, erythromycin], the “Antibiotic Sensitivity, Ery” value (C. acnes ATCC11827) is given as “S (S, sensitive)”, the “Antibiotic Sensitivity, Ery” value (C. acnes ATCC6919) is given as “S (S, sensitive)” and the “Antibiotic Sensitivity, Ery” value (C. acnes HL007PA1) is given as “R (erythromycin resistance MIC ≥ 0.5 μg/mL)”. For the same molecule, the “Antibiotic Sensitivity, Ery” value (C. acnes HL013PA1) was “R (erythromycin resistance MIC ≥ 0.5 μg/mL)”, the “Antibiotic Sensitivity, Ery” value (C. acnes HL038PA1) was “R (erythromycin resistance MIC ≥ 0.5 μg/mL)” and the “Antibiotic Sensitivity, Ery” value (C. acnes HL043PA1) was “R (erythromycin resistance MIC ≥ 0.5 μg/mL)”. For the same molecule, the “Antibiotic Sensitivity, Ery” value (C. acnes HL043PA2) was “R (erythromycin resistance MIC ≥ 0.5 μg/mL)”, the “Antibiotic Sensitivity, Ery” value (C. acnes HL045PA1) was “R (erythromycin resistance MIC ≥ 0.5 μg/mL)” and the “Antibiotic Sensitivity, Ery” value (C. acnes HL053PA1) was “R (erythromycin resistance MIC ≥ 0.5 μg/mL)”. For the same molecule, the “Antibiotic Sensitivity, Ery” value (C. acnes HL056PA1) was “R (erythromycin resistance MIC ≥ 0.5 μg/mL)”, the “Antibiotic Sensitivity, Ery” value (C. acnes HL072PA1) was “R (erythromycin resistance MIC ≥ 0.5 μg/mL)” and the “Antibiotic Sensitivity, Ery” value (C. acnes HL082PA2) was “R (erythromycin resistance MIC ≥ 0.5 μg/mL)”.
In the case of `CN(C)[C@@H]1C(O)=C(C(N)=O)C(=O)[C@@]2(O)C(O)=C3C(=O)c4c(O)cccc4[C@@](C)(O)[C@H]3C[C@@H]12` [Tetra, tetracycline], the “Antibiotic Sensitivity, Tetra” value (C. acnes ATCC11827) is listed as “S (S, sensitive)”, the “Antibiotic Sensitivity, Tetra” value (C. acnes ATCC6919) is listed as “S (S, sensitive)” and the “Antibiotic Sensitivity, Tetra” value (C. acnes HL007PA1) is listed as “R (resistance to tetracycline (Tetra), MIC ≥ 1.0 μg/mL)”. For the same molecule, the “Antibiotic Sensitivity, Tetra” value (C. acnes HL013PA1) was “R (resistance to tetracycline (Tetra), MIC ≥ 1.0 μg/mL)”, the “Antibiotic Sensitivity, Tetra” value (C. acnes HL038PA1) was “R (resistance to tetracycline (Tetra), MIC ≥ 1.0 μg/mL)” and the “Antibiotic Sensitivity, Tetra” value (C. acnes HL043PA1) was “R (resistance to tetracycline (Tetra), MIC ≥ 1.0 μg/mL)”. The “Antibiotic Sensitivity, Tetra” value (C. acnes HL043PA2) was “R (resistance to tetracycline (Tetra), MIC ≥ 1.0 μg/mL)”, the “Antibiotic Sensitivity, Tetra” value (C. acnes HL045PA1) was “R (resistance to tetracycline (Tetra), MIC ≥ 1.0 μg/mL)” and the “Antibiotic Sensitivity, Tetra” value (C. acnes HL053PA1) was “R (resistance to tetracycline (Tetra), MIC ≥ 1.0 μg/mL)”. The “Antibiotic Sensitivity, Tetra” value (C. acnes HL056PA1) was “R (resistance to tetracycline (Tetra), MIC ≥ 1.0 μg/mL)”, the “Antibiotic Sensitivity, Tetra” value (C. acnes HL072PA1) was “R (resistance to tetracycline (Tetra), MIC ≥ 1.0 μg/mL)” and the “Antibiotic Sensitivity, Tetra” value (C. acnes HL082PA2) was “R (resistance to tetracycline (Tetra), MIC ≥ 1.0 μg/mL)”.
